Laboratory results taken from patent US20140288044A1, “COMPOSITIONS AND THERAPEUTIC USES OF IKK-RELATED KINASE EPSILON AND TANKBINDING KINASE 1 INHIBITORS” (Alzheimer's Institute of America, Inc., priority 2011, published 2014).
Where two headings read alike, the source gives them in different places.

What was measured:
[1] = system: IKKε-mediated phosphorylation of IRF3; assay: ELISA for in-situ phosphorylation of IRF3 (phospho-Ser396) in HEK293T cells cotransfected with IRF3 and IKKε; format: cell-based; conditions: Homo sapiens, HEK-293T, 20 h, HEK293T cells, 20 hours, read-out: IC50, in-situ IKKε-mediated phosphorylation of IRF3
In short: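 HEK293T cells cotransfected with IRF3 and IKKε were treated with compound for 20 h, and lysates were assayed by ELISA for phospho-Ser396 IRF3, normalized to DMSO. Viability was checked in parallel by CellTiter-Glo. For TBK1, cells cotransfected with IRF7 and TBK1 were treated overnight and probed by Western blot for phospho-Ser477/Ser479 IRF7.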

IKKε = molecular target: T1, IKKε (Homo sapiens, UniProt Q14164); assay: In-vitro IKKε kinase assay (radiolabelled ATP, filterplate); format: biochemical
T1 construct: His-tag (in-house Sf9 preparation) or GST-tag (purchased Invitrogen preparation); these are alternatives, not both on one protein; host or cells: Sf9 cells
T1 sequence (Q14164 1-716): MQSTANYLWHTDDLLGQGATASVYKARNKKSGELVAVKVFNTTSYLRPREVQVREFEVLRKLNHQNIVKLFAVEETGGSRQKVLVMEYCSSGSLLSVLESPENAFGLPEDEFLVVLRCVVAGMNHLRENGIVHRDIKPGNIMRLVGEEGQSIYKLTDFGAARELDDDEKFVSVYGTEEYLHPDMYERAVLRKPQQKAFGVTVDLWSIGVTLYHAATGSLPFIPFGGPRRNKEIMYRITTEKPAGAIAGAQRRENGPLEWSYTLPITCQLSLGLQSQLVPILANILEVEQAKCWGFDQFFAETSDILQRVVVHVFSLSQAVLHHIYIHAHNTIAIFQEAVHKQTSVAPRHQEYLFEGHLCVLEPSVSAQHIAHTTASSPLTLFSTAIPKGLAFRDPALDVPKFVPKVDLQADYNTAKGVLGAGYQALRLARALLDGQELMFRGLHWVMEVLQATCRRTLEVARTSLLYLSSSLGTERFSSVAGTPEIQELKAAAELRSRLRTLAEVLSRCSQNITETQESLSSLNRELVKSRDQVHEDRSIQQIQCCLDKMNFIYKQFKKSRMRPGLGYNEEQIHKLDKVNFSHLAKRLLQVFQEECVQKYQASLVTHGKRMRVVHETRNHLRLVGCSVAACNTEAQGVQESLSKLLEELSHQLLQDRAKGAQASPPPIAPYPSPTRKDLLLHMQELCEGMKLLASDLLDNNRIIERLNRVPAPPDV
In short: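 His-tagged IKKε from Sf9 cells or GST-tagged IKKε, with myelin basic protein, casein or dephosphorylated casein as substrate and 32 μM ATP (2× Km) plus [γ^33]ATP. "Normal" assay used 0.1 μg/ml enzyme; "sensitized" used 0.015 μg/ml with dephosphorylated casein only. Stopped after 30–45 min with phosphoric acid; P-81 filter counts normalized to DMSO after background subtraction.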

[2] = in-vitro IKKε kinase inhibition assays, given as 0.005 μM (5 nM), read-out: IKKε kinase inhibitory activity (IC50 value)
[3] = "sensitized" assay, read-out: IC50, inhibition of the kinase activity of IKKε
[4] = range given from about 1 μM to about 250 nM

Row | IC50 [1] | IC50 (IKKε; [2]) | IC50 [1, 4] | Compound | IC50 (IKKε; [3])
1 | < 100 nM | < 5 nM | – | CN(C)c1ccc(Nc2nccc(-c3ccc(NC(=O)C4CC4)c(C#N)c3)n2)cn1 [Example Compound 138, N-[2-Cyano-4-(2-{[6-(dimethylamino)pyridin-3-yl]amino}pyrimidin-4-yl)phenyl]cyclopropanecarboxamide] | < 5 nM
2 | < 100 nM | < 5 nM | – | N#Cc1cc(-c2ccnc(Nc3ccnc(N4CCN(CCO)CC4)c3)n2)ccc1NC(=O)C1CC1 [Example Compound 143, N-{2-Cyano-4-[2-({2-[4-(2-hydroxyethyl)piperazin-1-yl]pyridin-4-yl}amino)pyrimidin-4-yl]phenyl}cyclopropanecarboxamide] | < 5 nM
3 | < 100 nM | – | – | CC(=O)c1ccc(Nc2nccc(-c3ccc(OC4CCOCC4)c(C#N)c3)n2)cn1 [Example Compound 212, 5-{2-[(6-Acetylpyridin-3-yl)amino]pyrimidin-4-yl}-2-(tetrahydro-2H-pyran-4-yloxy)benzonitrile] | < 5 nM
4 | < 100 nM | – | – | N#Cc1cc(-c2ccnc(Nc3ccc(N4CC(O)C4)nc3)n2)ccc1OC1CCOCC1 [Example Compound 215, 5-(2-{[6-(3-Hydroxyazetidin-1-yl)pyridin-3-yl]amino}pyrimidin-4-yl)-2-(tetrahydro-2H-pyran-4-yloxy)benzonitrile] | < 5 nM
5 | – | – | 250 to 1000 nM | CC(=O)NCc1ccc(Nc2nccc(-c3ccc(OC4CCOCC4)c(C#N)c3)n2)cn1 [Example Compound 228, N-{[5-({4-[3-Cyano-4-(tetrahydro-2H-pyran-4-yloxy)phenyl]pyrimidin-2-yl}amino)pyridin-2-yl]methyl}acetamide] | < 5 nM
6 | 100 to 250 nM | – | – | N#Cc1cc(-c2ccnc(Nc3ccc(CNC(=O)N4CCOCC4)nc3)n2)ccc1OC1CCOCC1 [Example Compound 229, N-{[5-({4-[3-Cyano-4-(tetrahydro-2H-pyran-4-yloxy)phenyl]pyrimidin-2-yl}amino)pyridin-2-yl]methyl}morpholine-4-carboxamide] | < 5 nM
7 | 100 to 250 nM | – | – | COC(=O)c1cc(Nc2nccc(-c3ccc(OC4CCOCC4)c(C#N)c3)n2)ccn1 [Example Compound 230, Methyl 4-({4-[3-cyano-4-(tetrahydro-2H-pyran-4-yloxy)phenyl]pyrimidin-2-yl}amino)pyridine-2-carboxylate] | < 5 nM
8 | 100 to 250 nM | – | – | N#Cc1cc(-c2ccnc(Nc3ccc(C(=O)N4CCCC4)nc3)n2)ccc1OC1CCN(C(=O)CO)CC1 [Example Compound 232, 2-{[1-(Hydroxyacetyl)piperidin-4-yl]oxy}-5-(2-{[6-(pyrrolidin-1-ylcarbonyl)pyridin-3-yl]amino}pyrimidin-4-yl)benzonitrile] | < 5 nM

Continued, compound first:

Row | Compound | IC50 [1] | IC50 (IKKε; [2]) | IC50 [1, 4] | IC50 (IKKε; [3])
9 | COc1cc(Nc2nccc(-c3ccc(OC4CCN(C(=O)CO)CC4)c(C#N)c3)n2)ccn1 [Example Compound 131, 2-{[1-(Hydroxyacetyl)piperidin-4-yl]oxy}-5-{2-[(2-methoxypyridin-4-yl)amino]pyrimidin-4-yl}benzonitrile] | 100 to 250 nM | < 5 nM | – | –
10 | CCN(CC)c1ccc(Nc2nccc(-c3ccc(NC(=O)C4CC4)c(C#N)c3)n2)cn1 [Example Compound 139, N-[2-Cyano-4-(2-{[6-(diethylamino)pyridin-3-yl]amino}pyrimidin-4-yl)phenyl]cyclopropanecarboxamide] | – | < 5 nM | 250 to 1000 nM | < 5 nM
11 | N#Cc1cc(-c2ccnc(Nc3cncc(C(=O)NCCO)c3)n2)ccc1OC1CCOCC1 [Example Compound 175, 5-({4-[3-Cyano-4-(tetrahydro-2H-pyran-4-yloxy)phenyl]pyrimidin-2-yl}amino)-N-(2-hydroxyethyl)pyridine-3-carboxamide] | 1000 to 5000 nM | – | – | < 5 nM
12 | COCCNCc1cncc(Nc2nccc(-c3ccc(OC4CCOCC4)c(C#N)c3)n2)c1 [Example Compound 184, 5-{2-[(5-{[(2-Methoxyethyl)amino]methyl}pyridin-3-yl)amino]pyrimidin-4-yl}-2-(tetrahydro-2H-pyran-4-yloxy)benzonitrile] | 100 to 250 nM | – | – | < 5 nM
13 | N#Cc1cc(-c2ccnc(Nc3cncc(CN4CCOCC4)c3)n2)ccc1OC1CCOCC1 [Example Compound 185, 5-(2-{[5-(Morpholin-4-ylmethyl)pyridin-3-yl]amino}pyrimidin-4-yl)-2-(tetrahydro-2H-pyran-4-yloxy)benzonitrile] | – | – | 250 to 1000 nM | < 5 nM
14 | COCCNc1cc(Nc2nccc(-c3ccc(OC4CCOCC4)c(C#N)c3)n2)ccn1 [Example Compound 193, 5-[2-({2-[(2-Methoxyethyl)amino]pyridin-4-yl}amino)pyrimidin-4-yl]-2-(tetrahydro-2H-pyran-4-yloxy)benzonitrile] | < 100 nM | – | – | < 5 nM
15 | CN(Cc1ccc(Nc2nccc(-c3ccc(OC4CCOCC4)c(C#N)c3)n2)cn1)C(=O)C(C)(C)O [Example Compound 205, N-{[5-({4-[3-Cyano-4-(tetrahydro-2H-pyran-4-yloxy)phenyl]pyrimidin-2-yl}amino)pyridin-2-yl]methyl}-2-hydroxy-N,2-dimethylpropanamide] | < 100 nM | – | – | < 5 nM
16 | CN(Cc1ccc(Nc2nccc(-c3ccc(OC4CCOCC4)c(C#N)c3)n2)cn1)S(C)(=O)=O [Example Compound 206, N-{[5-({4-[3-Cyano-4-(tetrahydro-2H-pyran-4-yloxy)phenyl]pyrimidin-2-yl}amino)pyridin-2-yl]methyl}-N-methylmethanesulfonamide] | < 100 nM | – | – | < 5 nM
17 | CN(CCS(C)(=O)=O)Cc1ccc(Nc2nccc(-c3ccc(OC4CCOCC4)c(C#N)c3)n2)cn1 [Example Compound 207, 5-(2-{[6-({Methyl[2-(methylsulfonyl)ethyl]amino}methyl)pyridin-3-yl]amino}pyrimidin-4-yl)-2-(tetrahydro-2H-pyran-4-yloxy)benzonitrile] | – | – | 250 to 1000 nM | < 5 nM
18 | COC1CN(Cc2cc(Nc3nccc(-c4ccc(OC5CCOCC5)c(C#N)c4)n3)ccn2)C1 [Example Compound 219, 5-[2-({2-[(3-Methoxyazetidin-1-yl)methyl]pyridin-4-yl}amino)pyrimidin-4-yl]-2-(tetrahydro-2H-pyran-4-yloxy)benzonitrile] | 1000 to 5000 nM | – | – | < 5 nM
19 | COc1cc(Nc2nccc(-c3ccc(O[C@@H]4CCN(C(=O)CO)C4)c(C#N)c3)n2)ccn1 [Example Compound 225, 2-{[(3R)-1-(Hydroxyacetyl)pyrrolidin-3-yl]oxy}-5-{2-[(2-methoxypyridin-4-yl)amino]pyrimidin-4-yl}benzonitrile] | 1000 to 5000 nM | – | – | < 5 nM
20 | N#Cc1cc(-c2ccnc(Nc3ccnc(CO)c3)n2)ccc1OC1CCOCC1 [Example Compound 227, 5-(2-{[2-(Hydroxymethyl)pyridin-4-yl]amino}pyrimidin-4-yl)-2-(tetrahydro-2H-pyran-4-yloxy)benzonitrile] | < 100 nM | – | – | < 5 nM
21 | CC(O)c1ccc(Nc2nccc(-c3ccc(OC4CCOCC4)c(C#N)c3)n2)cn1 (stereo not drawn) [Example Compound 231, 5-(2-{[6-(1-Hydroxyethyl)pyridin-3-yl]amino}pyrimidin-4-yl)-2-(tetrahydro-2H-pyran-4-yloxy)benzonitrile] | 100 to 250 nM | – | – | < 5 nM
